Results published in patent US12303497B2, “Anti-androgens for the treatment of metastatic castration-sensitive prostate cancer” (priority 2019, dated 2025).

Assays:
CYP3A4 [1] = molecular target: T1, CYP3A4 (Homo sapiens, UniProt P08684); test: Contribution of CYP3A4 in the metabolism of apalutamide; parameters: endogenous in cells; host or cells: human subjects, in vivo; conditions: estimated
From the text: Metabolism is the main route of elimination of apalutamide.

male rats = test: Repeat-dose toxicity study in male rats (up to 26 weeks); type: in vivo, rat
BCRP = BCRP (Homo sapiens, UniProt Q9UNQ0); test: In vitro transporter substrate study
Sequence of BCRP (Q9UNQ0 whole entry): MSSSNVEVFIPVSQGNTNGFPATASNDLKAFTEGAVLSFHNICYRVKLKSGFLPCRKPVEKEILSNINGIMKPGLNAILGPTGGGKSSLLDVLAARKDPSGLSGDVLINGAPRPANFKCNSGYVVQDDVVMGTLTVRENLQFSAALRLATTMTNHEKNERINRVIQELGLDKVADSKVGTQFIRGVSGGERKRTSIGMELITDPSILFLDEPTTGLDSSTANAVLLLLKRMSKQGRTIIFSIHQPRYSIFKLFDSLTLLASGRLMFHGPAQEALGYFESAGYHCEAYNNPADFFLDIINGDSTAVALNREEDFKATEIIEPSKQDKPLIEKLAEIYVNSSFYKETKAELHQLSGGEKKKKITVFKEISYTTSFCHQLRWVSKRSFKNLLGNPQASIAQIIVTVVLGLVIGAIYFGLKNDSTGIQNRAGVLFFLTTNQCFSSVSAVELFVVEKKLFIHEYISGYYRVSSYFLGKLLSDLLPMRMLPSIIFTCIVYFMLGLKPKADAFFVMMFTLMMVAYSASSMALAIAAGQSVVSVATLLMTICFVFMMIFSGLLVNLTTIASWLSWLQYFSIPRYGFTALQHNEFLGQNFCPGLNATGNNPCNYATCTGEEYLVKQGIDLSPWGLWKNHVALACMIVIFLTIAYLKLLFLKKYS

[2] = molecular target: organic anion transporter 1 (Homo sapiens, UniProt Q4U2R8); test: In vitro transporter inhibition
Sequence of organic anion transporter 1 (Q4U2R8 whole entry): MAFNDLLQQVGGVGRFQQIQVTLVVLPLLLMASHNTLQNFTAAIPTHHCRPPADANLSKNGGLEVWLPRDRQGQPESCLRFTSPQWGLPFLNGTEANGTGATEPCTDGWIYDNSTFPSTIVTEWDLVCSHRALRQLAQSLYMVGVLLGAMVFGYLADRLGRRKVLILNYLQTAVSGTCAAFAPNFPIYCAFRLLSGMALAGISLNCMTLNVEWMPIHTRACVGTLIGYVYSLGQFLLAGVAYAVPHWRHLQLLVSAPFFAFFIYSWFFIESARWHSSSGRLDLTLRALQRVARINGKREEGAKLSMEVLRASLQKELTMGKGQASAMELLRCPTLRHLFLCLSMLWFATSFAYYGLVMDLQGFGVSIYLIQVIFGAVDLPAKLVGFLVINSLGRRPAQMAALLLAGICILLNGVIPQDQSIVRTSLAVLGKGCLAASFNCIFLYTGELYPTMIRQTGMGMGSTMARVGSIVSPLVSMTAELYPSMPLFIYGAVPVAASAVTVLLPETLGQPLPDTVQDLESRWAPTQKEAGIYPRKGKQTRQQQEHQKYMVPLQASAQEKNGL

CYP1A2 = CYP1A2 (Homo sapiens, UniProt P05177); test: In vitro effect on CYP; conditions: therapeutically relevant concentrations
Sequence of CYP1A2 (P05177 whole entry): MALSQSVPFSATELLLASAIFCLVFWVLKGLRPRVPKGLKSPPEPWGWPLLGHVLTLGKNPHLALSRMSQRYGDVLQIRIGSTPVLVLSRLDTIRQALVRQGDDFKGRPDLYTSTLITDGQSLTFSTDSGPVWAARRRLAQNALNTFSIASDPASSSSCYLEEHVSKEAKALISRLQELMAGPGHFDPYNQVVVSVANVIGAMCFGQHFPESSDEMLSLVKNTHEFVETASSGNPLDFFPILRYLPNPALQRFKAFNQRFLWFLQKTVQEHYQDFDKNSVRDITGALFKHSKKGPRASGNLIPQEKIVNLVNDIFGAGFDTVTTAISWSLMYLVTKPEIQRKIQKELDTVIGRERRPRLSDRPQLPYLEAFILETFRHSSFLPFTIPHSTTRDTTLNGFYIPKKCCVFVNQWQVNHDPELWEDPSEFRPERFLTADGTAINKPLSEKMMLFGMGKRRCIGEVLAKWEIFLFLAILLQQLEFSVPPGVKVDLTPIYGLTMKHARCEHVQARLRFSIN

[3] = Solubility in aqueous media; type: physicochemical; conditions: aqueous media over a wide range of pH values
From the text: The chemical name is (4-[7-(6-Cyano-5-trifluoromethylpyridin-3-yl)-8-oxo-6-thioxo-5,7-diazaspiro[3.4]oct-5-yl]-2-fluoro-N-methylbenzamide). Apalutamide is a white to slightly yellow powder.

[4] = tested on: bacterial reverse mutation (Ames) assay; type: cell-based
[5] = tested on: non-castrate hormone-sensitive and bicalutamide-resistant human prostate cancer xenograft models; conditions: Clegg et al. Cancer Res. 2012; cited from earlier work
[6] = Clinical pharmacokinetics of apalutamide and N-desmethyl apalutamide
[7] = Effect of food on apalutamide pharmacokinetics (healthy subjects); type: in vivo, human
Method: Median time to reach tmax was delayed approximately 2 hours with food.

[8] = tested on: patients with metastatic castration-sensitive prostate cancer (mCSPC); test: Phase 3 study (TITAN) of apalutamide plus ADT versus placebo plus ADT: efficacy; type: in vivo, human
Method: The data presented herein as associated with this study reflects the state of this study at the time of this filing. The study was conducted at 260 sites in 23 countries. Review boards at all participating institutions approved the study, which was conducted in accordance with current International Conference on Harmonization guidelines for Good Clinical Practice and according to Declaration of Helsinki principles. All patients provided written informed consent. An independent data-monitoring committee was commissioned by the sponsor to monitor safety and efficacy before unblinding and make study conduct recommendations. Data were transcribed by personnel at each site from source documents into sponsor-prepared electronic case report forms. Blinding of investigators, patients, study site personnel, and sponsor study team to randomization codes was maintained until study completion, independent data-monitoring committee recommendation, or individual patient medical need.
Patients were stratified by Gleason score at diagnosis (≤7 vs. >7), region (North America and European Union vs. all other countries), and prior treatment with docetaxel (yes vs. no). A Screening Phase of up to 28 days before randomization established study eligibility. Subjects will receive/received treatment in 28-day cycles during the Treatment Phase until disease progression or the occurrence of unacceptable treatment-related toxicity or the sponsor terminates the study. […] During the Follow-up Phase, data collection (every 4 months) will include survival, additional data on secondary endpoints, date and type of disease progression (radiographic, PSA, clinical or a combination) on the first subsequent therapy for prostate cancer, and subsequent therapy for prostate cancer. Data collection in follow-up will continue until the subject dies, withdraws consent, is lost to follow-up or the study is terminated by the sponsor. The Brief Pain Inventory Short Form (BPI SF), Brief Fatigue Inventory (BFI), and EQ-5D-5L patient-report outcome (PRO) measures will also continue in the Follow-up Phase up to 12 months after treatment discontinuation.
Eligible patients were required to have documented adenocarcinoma of the prostate and distant metastatic disease documented by ≥1 lesion on bone scan, with or without visceral or lymph node involvement. […] Patients were castration sensitive (i.e., patients who are not receiving ADT at the time of progression). Previous treatment for prostate cancer was limited to prior docetaxel (maximum six cycles, no evidence of progression during treatment or before randomization), ADT for ≤6 months for metastatic castration-sensitive prostate cancer or ≤3 years total duration for localized prostate cancer, one course of radiation or surgical therapy for symptoms associated with metastatic disease, and other localized treatments (e.g., radiation therapy, prostatectomy) completed ≥1 year before randomization. Patients who had received a gonadotropin-releasing hormone agonist ≤28 days before randomization were required to take a first-generation antiandrogen (i.e., biclutamide, flutamide, or nilutamide) for ≥14 days before randomization. Antiandrogen must have been discontinued before randomization. Patients with severe angina, myocardial infarction, congestive heart failure, arterial/venous thromboembolic events, history of or predisposition for seizure, or recent ventricular arrhythmias were excluded.

[9] = Single oral administration of radiolabeled apalutamide (AUC share, excretion); type: in vivo
CYP2B6 = CYP2B6 (Homo sapiens, UniProt P20813); test: In vitro CYP inhibition
Sequence of CYP2B6 (P20813 whole entry): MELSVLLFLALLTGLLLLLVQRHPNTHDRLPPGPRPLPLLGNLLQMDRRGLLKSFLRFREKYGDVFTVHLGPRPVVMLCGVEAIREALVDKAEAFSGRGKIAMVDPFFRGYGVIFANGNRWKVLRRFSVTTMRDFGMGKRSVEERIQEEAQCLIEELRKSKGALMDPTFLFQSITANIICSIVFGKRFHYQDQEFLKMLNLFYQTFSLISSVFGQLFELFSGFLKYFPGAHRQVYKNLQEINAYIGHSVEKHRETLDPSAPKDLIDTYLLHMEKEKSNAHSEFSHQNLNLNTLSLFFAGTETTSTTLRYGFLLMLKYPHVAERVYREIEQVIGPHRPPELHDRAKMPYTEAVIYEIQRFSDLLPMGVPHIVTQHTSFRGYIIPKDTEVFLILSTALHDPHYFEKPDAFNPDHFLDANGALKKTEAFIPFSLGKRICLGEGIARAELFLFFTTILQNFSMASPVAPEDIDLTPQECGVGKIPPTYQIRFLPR

[10] = molecular target: organic cation transporter 2 (OCT2) (Homo sapiens, UniProt O15244); test: In vitro transporter inhibition
Sequence of organic cation transporter 2 (OCT2) (O15244 whole entry): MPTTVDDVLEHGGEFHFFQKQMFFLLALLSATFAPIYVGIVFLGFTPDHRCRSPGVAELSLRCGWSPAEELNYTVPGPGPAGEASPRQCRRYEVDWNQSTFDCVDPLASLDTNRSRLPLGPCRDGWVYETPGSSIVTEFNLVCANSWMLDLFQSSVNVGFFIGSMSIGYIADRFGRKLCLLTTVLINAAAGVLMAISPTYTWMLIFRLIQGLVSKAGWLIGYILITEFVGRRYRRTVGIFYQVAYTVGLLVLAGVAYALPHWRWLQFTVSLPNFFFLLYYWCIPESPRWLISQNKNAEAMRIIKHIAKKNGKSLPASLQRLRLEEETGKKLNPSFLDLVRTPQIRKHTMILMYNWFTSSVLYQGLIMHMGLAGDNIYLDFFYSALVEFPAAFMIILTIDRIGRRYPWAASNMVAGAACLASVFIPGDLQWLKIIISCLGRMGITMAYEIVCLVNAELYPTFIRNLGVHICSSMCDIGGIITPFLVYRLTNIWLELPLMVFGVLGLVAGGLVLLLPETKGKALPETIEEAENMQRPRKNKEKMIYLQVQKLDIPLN

[11] = tested on: multidrug and toxin extrusions (MATEs); test: In vitro transporter inhibition; type: in vitro ADME
[12] = tested on: in vitro chromosome aberration assay; test: In vitro chromosome aberration assay; type: cell-based
[13] = tested on: mouse xenograft models of prostate cancer; test: Mouse xenograft models of prostate cancer; type: in vivo; conditions: decreased tumor cell proliferation and increased apoptosis
rat = test: In vivo rat Comet assay
CYP3A4 [14] = molecular target: T1, CYP3A4; test: Co-administration with itraconazole (strong CYP3A4 inhibitor); type: in vivo; parameters: endogenous in cells; host or cells: human subjects, in vivo; conditions: ERLEADA 240 mg single dose with itraconazole
[15] = up to 70 days after single oral radiolabeled dose

T1 sequence (P08684 whole entry): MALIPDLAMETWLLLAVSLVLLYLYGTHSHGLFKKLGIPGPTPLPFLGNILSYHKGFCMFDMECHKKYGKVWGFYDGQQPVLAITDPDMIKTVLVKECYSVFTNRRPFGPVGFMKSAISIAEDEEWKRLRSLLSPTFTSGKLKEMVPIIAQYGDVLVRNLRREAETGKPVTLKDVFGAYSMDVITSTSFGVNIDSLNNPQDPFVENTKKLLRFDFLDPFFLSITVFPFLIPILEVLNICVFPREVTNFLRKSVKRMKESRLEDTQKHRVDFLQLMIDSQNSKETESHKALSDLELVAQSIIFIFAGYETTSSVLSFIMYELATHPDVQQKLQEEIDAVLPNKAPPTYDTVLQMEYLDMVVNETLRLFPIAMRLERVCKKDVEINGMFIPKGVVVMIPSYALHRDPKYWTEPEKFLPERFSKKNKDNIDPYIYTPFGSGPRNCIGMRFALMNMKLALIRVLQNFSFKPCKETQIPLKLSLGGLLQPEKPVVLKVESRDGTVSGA

## CNC(=O)c1ccc(N2C(=S)N(c3cnc(C#N)c(C(F)(F)F)c3)C(=O)C23CCC3)cc1F [Apalutamide, 4-[7-(6-cyano-5-trifluoromethylpyridin-3-yl)-8-oxo-6-thioxo-5,7-diazaspiro[3.4]oct-5-yl]-2-fluoro-N-methylbenzamide]
CYP3A4 [1]; at steady-state
  Contribution of CYP3A4 in the metabolism of apalutamide: 37%
CYP3A4 [1]; following single dose
  Contribution of CYP3A4 in the metabolism of apalutamide: 13%
Male rats
  Dose at which atrophy of prostate gland and seminal vesicles, aspermia/hypospermia, tubular degeneration and/or interstitial cell hyperplasia or hypertrophy were observed: ≥ 25 mg/kg/day
BCRP
  Substrate for BCRP: not
[2]
  Inhibition of organic anion transporter 1: do not inhibit
CYP1A2
  Effect on CYP1A2: do not affect
[3]
  Solubility: practically insoluble
[4]
  Mutagenicity: did not induce mutations
[5]
  Tumor response: partial or complete tumor regression
[6]; after single dosing
  CL/F: 1.3 L/h
[6]; age 18-94 years, race, mild to moderate renal impairment, mild to moderate hepatic impairment
  Pharmacokinetics in specific populations: No clinically significant differences
[6]; at steady-state after once-daily dosing
  CL/F: 2.0 L/h
[6]; human, in vivo
  Mean apparent volume of distribution at steady-state: approximately 276 L
[6]; range: 1 to 5 hours
  Median time to achieve peak plasma concentration (tmax): 2 h
[6]; recommended dosage (240 mg once daily)
  Time to steady-state: 4 weeks
[6]; recommended dosage, SD 32 (apalutamide), 23 (N-desmethyl apalutamide)
  AUC at steady-state, mean: 100000 ng·h/mL
[6]; repeated once-daily dosing of 30 to 480 mg
  Dose dependence of Cmax and AUC: increased proportionally
[7]
  Change in Cmax and AUC with a high-fat meal vs fasting: no clinically relevant changes
[8]; 99 patients
  Treatment discontinuations as the result of progressive disease: 19%
[8]; 525 patients randomized
  Deaths at cutoff for the first interim analysis: 83
  Radiographic progression events: 134
[8]; final analysis for rPFS
  Median radiographic progression-free survival: not reached
[8]; in vivo
  Overall survival, 24-month event-free rate: 82%
  Patients in whom PSA reached undetectable levels (PSA<0.2 ng per ml): 68%
  Radiographic progression-free survival, 24-month event-free rate: 68%
[8]; mixed-effect repeated measures model
  Change in FACT-P from baseline (health-related quality of life): maintained health-related quality of life and no between-group difference
[8]; n = 525
  Patients who discontinued because of disease progression: 99 (18.9) no. (%)
[8]; vs placebo + ADT
  Reduction in risk of death: 33%
  Reduction in risk of radiographic progression or death: 52%
[9]; single oral radiolabeled apalutamide 240 mg
  Share of the total AUC: 45%
[9]; [15]
  Dose recovered in feces: 24%
  Dose recovered in feces as this compound: 1.5%
  Dose recovered in urine: 65%
  Dose recovered in urine as this compound: 1.2%
CYP2B6
  CYP2B6 inhibition: moderate inhibitors
[10]
  Inhibition of OCT2: inhibit
[11]
  Inhibition of MATEs: inhibit
[12]
  Genotoxicity: not genotoxic
[13]
  Effect on tumors: decreased tumor volume
rat
  Genotoxicity: not genotoxic
CYP3A4 [14]
  Apalutamide AUC change: similar
  Apalutamide Cmax decrease: 22%
